Results taken from patent publication US10487068B2, “Pyridazine derivatives as RORc modulators” (Genentech, Inc., priority 2015, dated 2019).
pIC50: −log10 of the molar value.

Target: T1, RORc ligand binding domain (Homo sapiens, UniProt P51449)
T1 sequence (P51449 269-508 limits assumed): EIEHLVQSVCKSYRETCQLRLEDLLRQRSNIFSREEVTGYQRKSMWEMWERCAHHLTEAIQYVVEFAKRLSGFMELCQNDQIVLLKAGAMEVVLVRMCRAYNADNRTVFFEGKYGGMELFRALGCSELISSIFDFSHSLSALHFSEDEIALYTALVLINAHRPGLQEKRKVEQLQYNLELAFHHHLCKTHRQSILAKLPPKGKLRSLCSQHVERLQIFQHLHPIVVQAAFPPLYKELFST
Test: In Vitro RORc Ligand Binding Assay
Conditions: RORc IC50, radioligand 25-[3H]hydroxycholesterol 6 nM; 0.6 ug/mL RORc receptor; 3 h at 25° C.

SMILES	pIC50
Cc1nnc(-c2cncc([C@@]34CC[C@@H](c5cc(-c6c(F)cccc6F)nnc53)C4(C)C)n2)o1 [Example 35, 2-(6-((5R,8S)-3-(2,6-difluorophenyl)-9,9-dimethyl-5,6,7,8-tetrahydro-5,8-methanocinnolin-8-yl)pyrazin-2-yl)-5-methyl-1,3,4-oxadiazole]	7.66
COCCNC(=O)c1cncc([C@@]23CC[C@@H](c4cc(-c5c(F)cccc5F)nnc42)C3(C)C)n1 [Example 36, 6-((5R,8S)-3-(2,6-difluorophenyl)-9,9-dimethyl-5,6,7,8-tetrahydro-5,8-methanocinnolin-8-yl)-N-(2-methoxyethyl)pyrazine-2-carboxamide]	7.43
CN(CCO)C(=O)c1cccc([C@@]23CC[C@@H](c4cc(-c5c(F)cccc5F)nnc42)C3(C)C)n1 [Example 38, 6-((5R,8S)-3-(2,6-difluorophenyl)-9,9-dimethyl-5,6,7,8-tetrahydro-5,8-methanocinnolin-8-yl)-N-(2-hydroxyethyl)-N-methylpicolinamide]	7.42
CC1(C)[C@H]2CC[C@]1(c1cncc(C(=O)NCCO)n1)c1nnc(-c3c(F)cccc3F)cc12 [Example 41, 6-((5R,8S)-3-(2,6-difluorophenyl)-9,9-dimethyl-5,6,7,8-tetrahydro-5,8-methanocinnolin-8-yl)-N-(2-hydroxyethyl)pyrazine-2-carboxamide]	7.59
CC1(C)[C@H]2CC[C@]1(c1nccc(C#N)n1)c1nnc(-c3c(F)cccc3F)cc12 [Example 43, 2-((5R,8R)-3-(2,6-difluorophenyl)-9,9-dimethyl-5,6,7,8-tetrahydro-5,8-methanocinnolin-8-yl)pyrimidine-4-carbonitrile]	7.57
CC1(C)[C@H]2CC[C@]1(c1cccc(C(N)=O)n1)c1nnc(-c3c(F)cccc3F)cc12 [Example 45, 6-((5R,8S)-3-(2,6-difluorophenyl)-9,9-dimethyl-5,6,7,8-tetrahydro-5,8-methanocinnolin-8-yl)picolinamide]	8.06
CNC(=O)c1ccnc([C@@]23CC[C@@H](c4cc(-c5c(F)cccc5F)nnc42)C3(C)C)n1 [Example 47, 2-((5R,8R)-3-(2,6-difluorophenyl)-9,9-dimethyl-5,6,7,8-tetrahydro-5,8-methanocinnolin-8-yl)-N-methylpyrimidine-4-carboxamide]	7.23
C[C@@H](O)CNC(=O)c1cncc([C@@]23CC[C@@H](c4cc(-c5c(F)cccc5F)nnc42)C3(C)C)n1 [Example 49, 6-((5R,8S)-3-(2,6-difluorophenyl)-9,9-dimethyl-5,6,7,8-tetrahydro-5,8-methanocinnolin-8-yl)-N-((R)-2-hydroxypropyl)pyrazine-2-carboxamide]	7.39
C[C@H](CO)NC(=O)c1cccc([C@@]23CC[C@@H](c4cc(-c5c(F)cccc5F)nnc42)C3(C)C)n1 [Example 54, 6-((5R,8S)-3-(2,6-difluorophenyl)-9,9-dimethyl-5,6,7,8-tetrahydro-5,8-methanocinnolin-8-yl)-N-((R)-1-hydroxypropan-2-yl)picolinamide]	7.53
C[C@@H](CO)NC(=O)c1cccc([C@@]23CC[C@@H](c4cc(-c5c(F)cccc5F)nnc42)C3(C)C)n1 [Example 55, 6-((5R,8S)-3-(2,6-difluorophenyl)-9,9-dimethyl-5,6,7,8-tetrahydro-5,8-methanocinnolin-8-yl)-N-((S)-1-hydroxypropan-2-yl)picolinamide]	7.67
CC1(C)[C@@H]2CC[C@@]1(c1cccc(C#N)n1)c1nnc(-c3c(F)cccc3F)cc12 [Example 59, 6-((5S,8R)-3-(2,6-difluorophenyl)-9,9-dimethyl-5,6,7,8-tetrahydro-5,8-methanocinnolin-8-yl)picolinonitrile]	7.80
CC(C)(O)CNC(=O)c1cccc([C@@]23CC[C@@H](c4cc(-c5c(F)cccc5F)nnc42)C3(C)C)n1 [Example 63, 6-((5R,8S)-3-(2,6-difluorophenyl)-9,9-dimethyl-5,6,7,8-tetrahydro-5,8-methanocinnolin-8-yl)-N-(2-hydroxy-2-methylpropyl)picolinamide]	7.27
CC1(C)[C@H]2CC[C@]1(c1cc(C(=O)NCCO)ccn1)c1nnc(-c3c(F)cccc3F)cc12 [Example 64]	7.02
CC1(C)[C@H]2CC[C@]1(c1cc(C(=O)NC3COC3)ccn1)c1nnc(-c3c(F)cccc3F)cc12 [Example 65]	6.98
Cc1nnc(-c2ccnc([C@@]34CC[C@@H](c5cc(-c6c(F)cccc6F)nnc53)C4(C)C)c2)o1 [Example 66]	6.79

Further lines, results first:

pIC50	SMILES
7.32	CC1(C)[C@H]2CC[C@]1(c1cccc(C(=O)N3CCOCC3)n1)c1nnc(-c3c(F)cccc3F)cc12 [Example 37, (6-((5R,8S)-3-(2,6-difluorophenyl)-9,9-dimethyl-5,6,7,8-tetrahydro-5,8-methanocinnolin-8-yl)pyridin-2-yl)(morpholino)methanone]
7.94	COCCNC(=O)c1cccc([C@@]23CC[C@@H](c4cc(-c5c(F)cccc5F)nnc42)C3(C)C)n1 [Example 39, 6-((5R,8S)-3-(2,6-difluorophenyl)-9,9-dimethyl-5,6,7,8-tetrahydro-5,8-methanocinnolin-8-yl)-N-(2-methoxyethyl)picolinamide]
8.00	CC1(NC(=O)c2cccc([C@@]34CC[C@@H](c5cc(-c6c(F)cccc6F)nnc53)C4(C)C)n2)CC1 [Example 40, 6-((5R,8S)-3-(2,6-difluorophenyl)-9,9-dimethyl-5,6,7,8-tetrahydro-5,8-methanocinnolin-8-yl)-N-(1-methylcyclopropyl)picolinamide]
7.92	CC1(C)[C@H]2CC[C@]1(c1cc(C#N)ccn1)c1nnc(-c3c(F)cccc3F)cc12 [Example 42]
7.83	CONC(=O)c1cccc([C@@]23CC[C@@H](c4cc(-c5c(F)cccc5F)nnc42)C3(C)C)n1 [Example 44, 6-((5R,8S)-3-(2,6-difluorophenyl)-9,9-dimethyl-5,6,7,8-tetrahydro-5,8-methanocinnolin-8-yl)-N-methoxypicolinamide]
7.36	CC1(C)[C@H]2CC[C@]1(c1nccc(C(N)=O)n1)c1nnc(-c3c(F)cccc3F)cc12 [Example 46, 2-((5R,8R)-3-(2,6-difluorophenyl)-9,9-dimethyl-5,6,7,8-tetrahydro-5,8-methanocinnolin-8-yl)pyrimidine-4-carboxamide]
7.81	CC1(C)[C@@H]2CC[C@@]1(c1cccc(C(N)=O)n1)c1nnc(-c3c(F)cccc3F)cc12 [Example 48, 6-((5S,8R)-3-(2,6-difluorophenyl)-9,9-dimethyl-5,6,7,8-tetrahydro-5,8-methanocinnolin-8-yl)picolinamide]
7.50	C[C@H](O)CNC(=O)c1cncc([C@@]23CC[C@@H](c4cc(-c5c(F)cccc5F)nnc42)C3(C)C)n1 [Example 50, 6-((5R,8S)-3-(2,6-difluorophenyl)-9,9-dimethyl-5,6,7,8-tetrahydro-5,8-methanocinnolin-8-yl)-N-((S)-2-hydroxypropyl)pyrazine-2-carboxamide]
7.23	C[C@H](CO)NC(=O)c1cncc([C@@]23CC[C@@H](c4cc(-c5c(F)cccc5F)nnc42)C3(C)C)n1 [Example 51, 6-((5R,8S)-3-(2,6-difluorophenyl)-9,9-dimethyl-5,6,7,8-tetrahydro-5,8-methanocinnolin-8-yl)-N-((R)-1-hydroxypropan-2-yl)pyrazine-2-carboxamide]
7.42	C[C@@H](CO)NC(=O)c1cncc([C@@]23CC[C@@H](c4cc(-c5c(F)cccc5F)nnc42)C3(C)C)n1 [Example 52, 6-((5R,8S)-3-(2,6-difluorophenyl)-9,9-dimethyl-5,6,7,8-tetrahydro-5,8-methanocinnolin-8-yl)-N-((S)-1-hydroxypropan-2-yl)pyrazine-2-carboxamide]
6.32	CC1(C)[C@H]2CC[C@]1(c1cc(C(=O)O)ccn1)c1nnc(-c3c(F)cccc3F)cc12 [Example 53]
7.45	CC1(C)[C@H]2CC[C@]1(c1cccc(C(=O)NCCO)n1)c1nnc(-c3c(F)cccc3F)cc12 [Example 56, 6-((5R,8S)-3-(2,6-difluorophenyl)-9,9-dimethyl-5,6,7,8-tetrahydro-5,8-methanocinnolin-8-yl)-N-(2-hydroxyethyl)picolinamide]
7.15	CC1(C)[C@H]2CC[C@]1(c1cccc(C(=O)N3CCS(=O)(=O)CC3)n1)c1nnc(-c3c(F)cccc3F)cc12 [Example 57, (6-((5R,8S)-3-(2,6-difluorophenyl)-9,9-dimethyl-5,6,7,8-tetrahydro-5,8-methanocinnolin-8-yl)pyridin-2-yl)(1,1-dioxidothiomorpholino)methanone]
7.50	CC1(C)[C@@H]2CC[C@@]1(c1cncc(C(N)=O)n1)c1nnc(-c3c(F)cccc3F)cc12 [Example 58, 6-((5S,8R)-3-(2,6-difluorophenyl)-9,9-dimethyl-5,6,7,8-tetrahydro-5,8-methanocinnolin-8-yl)pyrazine-2-carboxamide]
7.87	CC1(C)[C@H]2CC[C@]1(c1cccc(C(=O)NC3COC3)n1)c1nnc(-c3c(F)cccc3F)cc12 [Example 60, 6-((5R,8S)-3-(2,6-difluorophenyl)-9,9-dimethyl-5,6,7,8-tetrahydro-5,8-methanocinnolin-8-yl)-N-(oxetan-3-yl)picolinamide]
7.46	C[C@H](O)CNC(=O)c1cccc([C@@]23CC[C@@H](c4cc(-c5c(F)cccc5F)nnc42)C3(C)C)n1 [Example 61, 6-((5R,8S)-3-(2,6-difluorophenyl)-9,9-dimethyl-5,6,7,8-tetrahydro-5,8-methanocinnolin-8-yl)-N-((S)-2-hydroxypropyl)picolinamide]
7.54	C[C@@H](O)CNC(=O)c1cccc([C@@]23CC[C@@H](c4cc(-c5c(F)cccc5F)nnc42)C3(C)C)n1 [Example 62, 6-((5R,8S)-3-(2,6-difluorophenyl)-9,9-dimethyl-5,6,7,8-tetrahydro-5,8-methanocinnolin-8-yl)-N-((R)-2-hydroxypropyl)picolinamide]
